What was measured:
[1] = test system: neonatal rat cardiomyocytes; experiment: Cardiomyocyte viability (live/dead assay); assay type: cell-based; settings: 120 h, after 5 days in vitro culture, drugs in medium (20 µM), control cells 25 %
Method: (§1) Cell isolation: Primary neonatal rat cardiomyocytes and fibroblasts were isolated from the hearts of 1-2 day old Sprague-Dawley rat pups as described previously with minor modifications. Briefly, the cardiac tissue was minced and digested with 80 units/mL collagenase II (Worthington) and 0.8 mg/mL pancreatin (Sigma) at 37° C. in a water bath. Neonatal calf serum (NCS) was applied to inactivate enzymatic activity in the digested cell mixture. The cell solution was filtered through 100 µm mesh and centrifuged at 2200 rpm for 3 minutes. The cell pellets were suspended in 1 mL NCS and further separated by Percoll density gradient centrifugation. […]
Cell culture and evaluation of drug effects in vitro: The drug effects on cardiomyocyte viability and proliferation were evaluated. Isolated cardiomyocytes were calculated and seeded on 0.1% gelatin-coated twenty-four well tissue culture plate with a density of 20, 000 cells/cm^2, and cultured at 37° C. in a humidified, 5% CO2 incubator overnight in DMEM/Medium 199 (4/1) containing 10% FBS, 1% NEAAs and 1% P/S. The next day, the culture medium was replaced by fresh medium containing 20 µM F, R or their combination. […] A live/dead kit (Invitrogen) was for cell viability assay, and images were taken using inverted microscope fluorescence microscopy (Zeiss Axio Observer Z1) to determine the cell numbers and the percentage of dead cells. […]

neonatal cardiomyocytes = experiment: Cardiomyocyte proliferation (EdU assay); assay type: cell-based, rat; settings: drugs in medium
Method: Cell isolation: Primary neonatal rat cardiomyocytes and fibroblasts were isolated from the hearts of 1-2 day old Sprague-Dawley rat pups as described previously with minor modifications. Briefly, the cardiac tissue was minced and digested with 80 units/mL collagenase II (Worthington) and 0.8 mg/mL pancreatin (Sigma) at 37° C. in a water bath. Neonatal calf serum (NCS) was applied to inactivate enzymatic activity in the digested cell mixture. The cell solution was filtered through 100 µm mesh and centrifuged at 2200 rpm for 3 minutes. The cell pellets were suspended in 1 mL NCS and further separated by Percoll density gradient centrifugation. […] Cell culture and evaluation of drug effects in vitro: The drug effects on cardiomyocyte viability and proliferation were evaluated. Isolated cardiomyocytes were calculated and seeded on 0.1% gelatin-coated twenty-four well tissue culture plate with a density of 20, 000 cells/cm^2, and cultured at 37° C. in a humidified, 5% CO2 incubator overnight in DMEM/Medium 199 (4/1) containing 10% FBS, 1% NEAAs and 1% P/S. […] A live/dead kit (Invitrogen) was for cell viability assay, and images were taken using inverted microscope fluorescence microscopy (Zeiss Axio Observer Z1) to determine the cell numbers and the percentage of dead cells. […]

cardiac fibroblasts = experiment: Cardiac fibroblast proliferation (MTS assay); assay type: cell-based, rat; settings: drugs in medium
Method: Cell isolation: Primary neonatal rat cardiomyocytes and fibroblasts were isolated from the hearts of 1-2 day old Sprague-Dawley rat pups as described previously with minor modifications. Briefly, the cardiac tissue was minced and digested with 80 units/mL collagenase II (Worthington) and 0.8 mg/mL pancreatin (Sigma) at 37° C. in a water bath. Neonatal calf serum (NCS) was applied to inactivate enzymatic activity in the digested cell mixture. The cell solution was filtered through 100 µm mesh and centrifuged at 2200 rpm for 3 minutes. The cell pellets were suspended in 1 mL NCS and further separated by Percoll density gradient centrifugation. A two-layer density gradient was formed consisting of 40.5% Percoll (GE17-0891-01, Sigma) solution in the top layer and 58.5% Percoll solution in the bottom layer. The cell suspension was layered on top of the gradient and centrifuged at 3000 rpm at room temperature for 30 minutes. […] The drug effects on cardiac fibroblast proliferation and myo-differentiation were evaluated. Fibroblasts were seeded on twenty-four well tissue culture plate with a density of 5000 cells/cm^2 and cultured overnight in DMEM containing 10% FBS and 1% P/S. On the next day, the culture medium was replaced by the fresh medium containing F and R at the determined concentrations and combinations, and the medium was changed every other day. […]

[2] = test system: neonatal cardiac fibroblasts; experiment: Cardiac fibroblast myo-differentiation (α-SMA / F-actin staining); assay type: cell-based, rat; settings: drugs in medium, day 5
Method: as §1, with “centrifugation. A two-layer density gradient was formed consisting of 40.5% Percoll (GE17-0891-01, Sigma) solution in the top layer and 58.5% Percoll solution in the bottom layer.” for “centrifugation.”
The drug effects on cardiac fibroblast proliferation and myo-differentiation were evaluated. Fibroblasts were seeded on twenty-four well tissue culture plate with a density of 5000 cells/cm^2 and cultured overnight in DMEM containing 10% FBS and 1% P/S. On the next day, the culture medium was replaced by the fresh medium containing F and R at the determined concentrations and combinations, and the medium was changed every other day. […]
(§2) The effects of drugs released from FR/NPs and FR/NPs-µGel particles 12 were evaluated using the methods mentioned above. […]

[3] = test system: Human umbilical vein endothelial cells (HUVECs); experiment: Endothelial cell proliferation (MTS assay); assay type: cell-based
Method: The drug effects on EC proliferation and network formation were evaluated. Human umbilical vein endothelial cells (HUVECs) were seeded on 0.1% gelatin-coated 24-well plates with a density of 5, 000 cells/cm^2 and cultured overnight in DMEM containing 10% FBS and 1% P/S. On the next day, the culture medium was replaced by the fresh medium containing F and R at the determined concentrations and combinations, and the medium was changed every other day. MTS cell proliferation assay was performed on day 1, 3 and 5. In addition, the ECs network formation was examined on growth factor reduced Matrigel according to the manufacturer's instructions (cat# CB-40230C, Thermo Fisher Scientific). Briefly, 24-well plates were coated with Matrigel. ECs were digested and plated onto a layer of Matrigel at a density of 3×10^5 cells/well in M199 medium containing 1% FBS and […], with the addition of F and R. Vascular endothelial growth factor (VEGF, 20 ng/mL) was used as a positive control. After 16 hours of culture, cells were stained with calcein acetoxymethyl ester (calcein-AM) and observed with an inverted fluorescent microscope. The number of tubular structures, junctions and meshes were analyzed by Image J with the Angiogenesis Analyzer plugin (n = 4-6 per group).

[4] = test system: Human umbilical vein endothelial cells (HUVECs); experiment: Endothelial cell tubule network formation on Matrigel; assay type: cell-based; settings: drugs in medium, 16 hours
Method: The drug effects on EC proliferation and network formation were evaluated. Human umbilical vein endothelial cells (HUVECs) were seeded on 0.1% gelatin-coated 24-well plates with a density of 5, 000 cells/cm^2 and cultured overnight in DMEM containing 10% FBS and 1% P/S. On the next day, the culture medium was replaced by the fresh medium containing F and R at the determined concentrations and combinations, and the medium was changed every other day. MTS cell proliferation assay was performed on day 1, 3 and 5. In addition, the ECs network formation was examined on growth factor reduced Matrigel according to the manufacturer’s instructions (cat# CB-40230C, Thermo Fisher Scientific). Briefly, 24-well plates were coated with Matrigel. ECs were digested and plated onto a layer of Matrigel at a density of 3×10^5 cells/well in M199 medium containing 1% FBS and 1% P/S, with the addition of F and R. Vascular endothelial growth factor (VEGF, 20 ng/mL) was used as a positive control. After 16 hours of culture, cells were stained with calcein acetoxymethyl ester (calcein-AM) and observed with an inverted fluorescent microscope. The number of tubular structures, junctions and meshes were analyzed by Image J with the Angiogenesis Analyzer plugin (n = 4-6 per group).
as §2

Compound | viability at 20 µM [1] [%] | proliferation of neonatal cardiomyocytes, times as many cells as the control (neonatal cardiomyocytes) | fibroblast proliferation (cardiac fibroblasts) | myo-differentiation of cardiac fibroblasts [2] | optimal concentration to enhance EC proliferation [3] [µM] | EC proliferation ([3]; drugs in medium) | EC network formation [4]
Cc1cccc(-c2n[nH]cc2-c2ccc3ncccc3n2)n1 [R, 2-(3-(6-Methylpyridine-2-yl)-1H-pyrazol-4-yl)-1,5-naphthyridine] | 80 | six | opposite inhibitory effects | could prevent myo-differentiation of cardiac fibroblasts | 20 | dose-dependent effects to enhance EC proliferation | not with R alone
C=C[C@@]1(C)CC(=O)[C@]2(O)[C@@]3(C)[C@@H](O)CCC(C)(C)[C@@H]3[C@H](O)[C@H](OC(C)=O)[C@@]2(C)O1 [F, Forskolin] | 80 |  |  |  | 20 |  | 

— US20230293438A1, “INJECTABLE DRUG-RELEASING MICROPOROUS ANNEALED PARTICLE SCAFFOLDS FOR TREATING MYOCARDIAL INFARCTION” (THE REGENTS OF THE UNIVERSITY OF CALIFORNIA, priority 2020, published 2023)
